The values below come from patent US20250381109A1, “KERATIN TREATMENT FORMULATIONS AND METHODS” (Olaplex, Inc., priority 2014, published 2025).

Assay [1] is described as follows: Hair treated with bleaching formulation applied simultaneously with active agent formulation versus bleaching formulation alone (Example 4). Details: species or system human. Conditions: 3.5 g of 12 wt % in water added to bleaching mixture, two hours. As for the experimental part:
(1) 0.5 ounces of powder lightener (Clairol Professional, Basic White) and 0.5 ounces of conditioning cream developer (Redken, Blonde Icing) were combined to form a bleaching mixture. 3.5 g of 2-(methacryloyloxy)ethan-1-aminium (Z)-3-carboxyacrylate (12 wt % in water) was added to the bleaching mixture and thoroughly mixed with a brush.
(§1) (2) The bleaching mixture prepared was brushed onto the swatches of hair with a brush in order to thoroughly coat the strands of hair. The mixture coated hair was wrapped in aluminum paper and allowed to stand under ambient conditions for a period of two hours.
(§2) (3) After the two hour bleaching period the swatches of hair were washed with shampoo and the hair was subsequently allowed to air dry.

Assay [2] can be described thus: Hair breakage due to repeated application of traditional perm and the active agent formulation (Example 7). Conditions: after dithiothreitol or ammonium thioglycolate; procedure repeated three times over a 48 hour time period.
The nature of assay [3]: Traditional perm versus perm using maleic acid (Example 6). Conditions: perm after ammonium thioglycolate or dithiothreitol; after 40 cycles of washing and drying.
Assay [4] in a line: Hair treated with bleaching formulation applied simultaneously with active agent formulation versus bleaching formulation alone (Example 5). Further details: species or system human. Conditions: 3.5 g of 10 wt % in water added to bleaching mixture, two hours. As for the experimental part:
(1) 0.5 ounces of powder lightener (Clairol Professional, Basic White) and 0.5 ounces of conditioning cream developer (Redken, Blonde Icing) were combined to form a bleaching mixture. 3.5 g of prop-2-en-1-aminium (Z)-3-carboxyacrylate (10 wt % in water) was added to the bleaching mixture and thoroughly mixed with a brush.
as §1, §2

In the case of `C=C(C)C(=O)OCCN.O=C(O)/C=C\C(=O)O` [2-(methacryloyloxy)ethan-1-aminium (Z)-3-carboxyacrylate], in assay [1], the appearance entry is listed as “healthy appearance”, the breakage entry is reported as “no discernible breakage” and the feel result was “great feel”.

For `OO` [hydrogen peroxide], the “breakage upon visual inspection” value in assay [2] was “significant breakage”. Further, in assay [3], the “reduction in the overall curl” value was “only slight reduction in the overall curl”.

`C=CCN.O=C(O)/C=C\C(=O)O` [prop-2-en-1-aminium (Z)-3-carboxyacrylate]: in assay [4], the appearance result is “healthy appearance”, the breakage result is given as “no discernible breakage” and the feel entry is “great feel”.
